According to patent US7323485B2, “4-(substituted cycloalkylmethyl) imidazole-2-thiones, 4-(substituted cycloalkenylmethyl) imidazole-2-thiones, 4-(substituted cycloalkylmethyl) imidazol-2-ones and 4-(substituted cycloalkenylmethyl) imidazol-2-ones and related compounds” (Allergan, Inc., priority 2002, dated 2008):

Key:
[1] = system: rats with ligated L5 and L6 spinal nerves; assay: Chung model of neuropathic pain (tactile allodynia, von Frey hairs); format: in vivo; conditions: Rattus norvegicus, ip, 0.5 h, 30 min following drug administration, read-out: % Pain Reversal ± SEM
Source text: A model in accordance with Kim and Chung 1992, Pain […], pp 355-363 (Chung model), for chronic pain (in particular peripheral neuropathy) involves the surgical ligation of the L5 (and optionally the L6) spinal nerves on one side in experimental animals. Rats recovering from the surgery gain weight and display a level of general activity similar to that of normal rats. However, these rats develop abnormalities of the foot, wherein the hindpaw is moderately everted and the toes are held together. More importantly, the hindpaw on the side affected by the surgery appears to become sensitive to pain from low-threshold mechanical stimuli, such as that producing a faint sensation of touch in a human, within about 1 week following surgery. This sensitivity to normally non-painful touch is called “tactile allodynia” and lasts for at least two months. The response includes lifting the affected hindpaw to escape from the stimulus, licking the paw and holding it in the air for many seconds. None of these responses is normally seen in the control group.
Rats are anesthetized before surgery. The surgical site is shaved and prepared either with betadine or Novacaine. Incision is made from the thoracic vertebra Xlll down toward the sacrum. Muscle tissue is separated from the spinal vertebra (left side) at the L4-S2 levels. The L6 vertebra is located and the transverse process is carefully removed with a small rongeur to expose the L4-L6 spinal nerves. The L5 and L6 spinal nerves are isolated and tightly ligated with 6-0 silk thread. The same procedure is done on the right side as a control, except no ligation of the spinal nerves is performed.
A complete hemostasis is confirmed, then the wounds are sutured. A small amount of antibiotic ointment is applied to the incised area, and the rat is transferred to the recovery plastic cage under a regulated heat-temperature lamp. On the day of the experiment, at least seven days after the surgery, typically six rats per test group are administered the test drugs by intraperitoneal (i.p.) injection or oral gavage. For i.p. injection, the compounds are formulated in approximately 10 to 50% DMSO and given in a volume of 1 ml/kg body weight.
Tactile allodynia is measured prior to and 30 minutes after drug administration using von Frey hairs that are a series of fine hairs with incremental differences in stiffness. Rats are placed in a plastic cage with a wire mesh bottom and allowed to acclimate for approximately 30 minutes. The von Frey hairs are applied perpendicularly through the mesh to the mid-plantar region of the rats' hindpaw with sufficient force to cause slight buckling and held for 6-8 seconds. The applied force has been calculated to range from 0.41 to 15.1 grams. If the paw is sharply withdrawn, it is considered a positive response. A normal animal will not respond to stimuli in this range, but a surgically ligated paw will be withdrawn in response to a 1-2 gram hair. The 50% paw withdrawal threshold is determined using the method of Dixon, W. J., Ann. Rev. Pharmacol. Toxicol. 20:441-462 (1980). The post-drug threshold is compared to the pre-drug threshold and the percent reversal of tactile sensitivity is calculated based on a normal threshold of 15.1 grams. The results are expressed in percent (%) MPE, where the MPE value reflects the percentage reversal of pain threshold to that of a normal animal (100%). Table 3 below indicates results of this test with Compounds 1, 7 and 29 of the invention, administered i.p. and in oral doses.

[2] = molecular target: T1, alpha2C adrenergic receptors (Homo sapiens, UniProt P18825); assay: Receptor Selection and Amplification Technology (RSAT) assay, alpha2C; format: cell-based; conditions: for EC50: NA = not active at concentrations less than 10 micromolar, read-out: Alpha 2C EC50; for Alpha 2C intrinsic activity: fraction of maximal effect of standard full agonist brimonidine (UK14304)
T1 construct: expressed in transfected cells; host or cells: NIH-3T3
T1 sequence (P18825 1-462): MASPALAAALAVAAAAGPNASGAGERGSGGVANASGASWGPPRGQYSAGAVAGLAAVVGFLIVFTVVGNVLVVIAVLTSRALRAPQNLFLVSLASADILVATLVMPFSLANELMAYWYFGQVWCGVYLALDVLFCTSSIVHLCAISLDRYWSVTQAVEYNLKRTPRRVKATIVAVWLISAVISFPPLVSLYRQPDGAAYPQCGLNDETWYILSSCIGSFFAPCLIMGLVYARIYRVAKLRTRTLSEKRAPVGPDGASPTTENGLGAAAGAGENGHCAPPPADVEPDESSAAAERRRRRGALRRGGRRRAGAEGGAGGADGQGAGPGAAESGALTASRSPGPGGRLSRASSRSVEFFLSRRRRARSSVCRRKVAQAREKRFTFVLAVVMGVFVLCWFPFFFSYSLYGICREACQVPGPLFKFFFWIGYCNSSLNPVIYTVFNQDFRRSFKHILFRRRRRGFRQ
Source text: (§1) The imidazole-2-thione compounds of the invention are agonists of alpha2 adrenergic receptors, particularly they tend to be specific or selective agonists of alpha2B and/or to a lesser extent alpha2C adrenergic receptors, in preference over alpha2A adrenergic receptors. […] Al., 1995, Pharmacol. Toxicol. 76, pp. 308-311 (incorporated herein by reference) and is also described below. Another reference pertinent to this assay is Conklin et al. (1993) Nature 363:274-6, also incorporated herein by reference.
(§2) Receptor Selection and Amplification Technology (RSAT) Assay
(§3) The RSAT assay measures a receptor-mediated loss of contact inhibition that results in selective proliferation of receptor-containing cells in a mixed population of confluent cells. The increase in cell number is assessed with an appropriate transfected marker gene such as β-galactosidase, the activity of which can be easily measured in a 96-well format. Receptors that activate the G protein, Gq, elicit this response. Alpha2 receptors, which normally couple to Gi, activate the RSAT response when coexpressed with a hybrid Gq protein that has a Gi receptor recognition domain, called Gq/i5.
(§4) NIH-3T3 cells are plated at a density of 2×10^6 cells in 15 cm dishes and maintained in Dulbecco's modified Eagle's medium supplemented with 10% calf serum. One day later, cells are cotransfected by calcium phosphate precipitation with mammalian expression plasmids encoding p-SV-β-galactosidase (5-10 μg), receptor (1-2 μg) and G protein (1-2 μg). 40 μg salmon sperm DNA may also be included in the transfection mixture. Fresh media is added on the following day and 1-2 days later, cells are harvested and frozen in 50 assay aliquots. Cells are thawed and 100 μl added to 100 μl aliquots of various concentrations of drugs in triplicate in 96-well dishes. Incubations continue 72-96 hr at 37 EC. After washing with phosphate-buffered saline, β-galactosidase enzyme activity is determined by adding 200 μl of the chromogenic substrate (consisting of 3.5 mM o-nitrophenyl-β-D-galactopyranoside and 0.5% nonidet P-40 in phosphate buffered saline), incubating overnight at 30 EC and measuring optical density at 420 nm. The absorbance is a measure of enzyme activity, which depends on cell number and reflects a receptor-mediated cell proliferation. The EC50 and maximal effect of each drug at each alpha2 receptor is determined. The efficacy or intrinsic activity is calculated as a ratio of the maximal effect of the drug to the maximal effect of a standard full agonist for each receptor subtype. Brimonidine, also called UK14304, the chemical structure of which is shown below, is used as the standard agonist for the alpha2A, alpha2B and alpha2C receptors.
(§5) The results of the RSAT assay with several exemplary compounds of the invention are disclosed in Table 1 above together with the chemical formulas of these examplary compounds. […] NA stands for “not active” at concentrations less than 10 micromolar. As is known EC50 is the concentration at which half of a given compound's maximal activity is observed.

[3] = molecular target: T2, alpha2B adrenergic receptors (Homo sapiens, UniProt P18089); assay: Receptor Selection and Amplification Technology (RSAT) assay, alpha2B; format: cell-based; conditions: for EC50: NA = not active at concentrations less than 10 micromolar, read-out: Alpha 2B EC50; for Alpha 2B intrinsic activity: fraction of maximal effect of standard full agonist brimonidine (UK14304)
T2 construct: expressed in transfected cells; host or cells: NIH-3T3
T2 sequence (P18089 1-450): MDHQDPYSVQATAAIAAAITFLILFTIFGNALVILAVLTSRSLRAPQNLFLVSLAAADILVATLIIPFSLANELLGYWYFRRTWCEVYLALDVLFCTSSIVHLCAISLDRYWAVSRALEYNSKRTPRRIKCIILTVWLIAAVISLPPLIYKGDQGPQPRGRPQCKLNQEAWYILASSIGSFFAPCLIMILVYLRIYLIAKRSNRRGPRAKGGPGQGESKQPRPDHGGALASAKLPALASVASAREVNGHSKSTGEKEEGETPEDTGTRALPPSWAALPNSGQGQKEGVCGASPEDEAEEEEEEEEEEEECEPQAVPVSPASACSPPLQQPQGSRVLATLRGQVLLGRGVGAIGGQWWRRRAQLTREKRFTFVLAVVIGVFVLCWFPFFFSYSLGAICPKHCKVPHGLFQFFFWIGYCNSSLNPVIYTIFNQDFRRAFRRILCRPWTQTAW
Source text: as §1, §2, §3, §4, §5

Row | SMILES | EC50 [2] [nM] | Alpha 2C intrinsic activity [2] | EC50 [3] [nM] | Alpha 2B intrinsic activity [3] | inhibition in vivo at 0.001 mg/kg ([1]; 1 μg/kg i.p.) [%] | inhibition in vivo at 0.003 mg/kg ([1]; 3 μg/kg i.p.) [%] | inhibition in vivo at 0.01 mg/kg ([1]; 10 μg/kg i.p.) [%] | inhibition in vivo at 0.03 mg/kg ([1]; 30 μg/kg i.p.) [%] | inhibition in vivo at 0.1 mg/kg ([1]; 100 μg/kg i.p.) [%]
1 | CC1=C(C)C(Cc2c[nH]c(=O)[nH]2)CC1 (stereo not shown) [Compound 44, 4-(2,3-dimethyl-cyclopent-2-enylmethyl)-1,3-dihydro-imidazol-2-one] |  |  |  |  | 0.5 ± 2.9 | 24 ± 4.6 | 46 ± 9.1 | 62 ± 9.6 | 82 ± 5.8
2 | Cc1ccc2c(c1)CC(c1c[nH]c(=S)[nH]1)C2 (stereo not shown) | 374 | 0.45 | 27 | 1.12 |  |  |  |  | 
3 | COc1ccc2c(c1)CCC2Cc1c[nH]c(=S)[nH]1 (stereo not shown) | > 2000 | 0.46 | 1590 | 0.68 |  |  |  |  | 
4 | S=c1[nH]cc(C2Cc3ccc(Br)cc3C2)[nH]1 (stereo not shown) | 321 | 0.38 | 28 | 0.87 |  |  |  |  | 
5 | C=CC1=CCCC1Cc1c[nH]c(=S)[nH]1 (stereo not shown) | > 2000 | 0.57 | 422 | 1.11 |  |  |  |  | 
6 | Cc1c(Cl)ccc2c1CC(c1c[nH]c(=S)[nH]1)C2 (stereo not shown) | 561 | 0.45 | 14 | 0.91 |  |  |  |  | 
7 | S=c1[nH]cc(C[C@@H]2CCc3ccccc32)[nH]1 | 630 | 0.61 | 24.5 | 0.97 |  |  |  |  | 
8 | CC(C)CC1=CCCC1Cc1c[nH]c(=S)[nH]1 (stereo not shown) | 662 | 0.75 | 260 | 1.0 |  |  |  |  | 
9 | CC=CC1=CCCC1Cc1c[nH]c(=S)[nH]1 (stereo not shown) | 2470 | 0.72 | 1620 | 0.88 |  |  |  |  | 
10 | Cc1ccc(C2=CCCC2Cc2c[nH]c(=S)[nH]2)cc1 (stereo not shown) | > 3000 | 0.46 | 2180 | 0.47 |  |  |  |  | 
11 | O=C1C2=C(CCC1Cc1c[nH]c(=S)[nH]1)NCCC2 (stereo not shown) | 2260 | 0.88 | 755 | 0.98 |  |  |  |  | 
12 | S=c1[nH]cc(CC2CCCc3cccnc32)[nH]1 (stereo not shown) | 2820 | 0.46 | 236 | 1.07 |  |  |  |  | 

Now from value to compound, other results behind:

Row | EC50 [2] [nM] | Alpha 2C intrinsic activity [2] | EC50 [3] [nM] | Alpha 2B intrinsic activity [3] | SMILES | inhibition in vivo at 0.001 mg/kg ([1]; 1 μg/kg i.p.) [%] | inhibition in vivo at 0.003 mg/kg ([1]; 3 μg/kg i.p.) [%] | inhibition in vivo at 0.01 mg/kg ([1]; 10 μg/kg i.p.) [%] | inhibition in vivo at 0.03 mg/kg ([1]; 30 μg/kg i.p.) [%] | inhibition in vivo at 0.1 mg/kg ([1]; 100 μg/kg i.p.) [%]
13 | 64 | 0.56 | 7.5 | 0.95 | S=c1[nH]cc(C[C@H]2CCc3ccccc32)[nH]1 |  |  |  |  | 
14 | 290 | 0.62 | 219 | 0.42 | Fc1ccc(C2=CCCC2Cc2c[nH]c(=S)[nH]2)c(F)c1 (stereo not shown) |  |  |  |  | 
15 | 42 | 0.63 | 34 | 1.01 | Fc1ccc2c(c1)C(Cc1c[nH]c(=S)[nH]1)CC2 (stereo not shown) |  |  |  |  | 
16 | 131 | 0.72 | 269 | 0.97 | Fc1ccc(C2=CCC[C@@H]2Cc2c[nH]c(=S)[nH]2)cc1 |  |  |  |  | 
17 | 306 | 0.34 | 162 | 0.95 | O=C1c2c(CO)cccc2CCC1Cc1c[nH]c(=S)[nH]1 (stereo not shown) |  |  |  |  | 
18 | 45 | 0.74 | < 2 | 1.15 | S=c1[nH]cc(C2Cc3cccc(Cl)c3C2)[nH]1 (stereo not shown) |  |  |  |  | 
19 | 139 | 1.0 | 30 | 0.94 | COc1ccc2c(c1)C(Cc1c[nH]c(=S)[nH]1)CC2 (stereo not shown) |  |  |  |  | 
20 | 155 | 1.01 | 498 | 0.91 | N#Cc1ccc(C2=CCCC2Cc2c[nH]c(=S)[nH]2)cc1 (stereo not shown) |  |  |  |  | 
21 | 57 | 0.5 | 603 | 0.98 | CCCC1=C(c2ccc(F)cc2)C(Cc2c[nH]c(=S)[nH]2)CC1 (stereo not shown) |  |  |  |  | 
